Assay results: US9795140B2, “Molecules having pesticidal utility, and intermediates, compositions, and processes, related thereto” (priority 2015, dated 2017)

Assays:
Type in all cases: in vivo
[1] = tested on: Yellow Fever Mosquito (Aedes aegypti, AEDSAE); assay: Bioassay on Yellow Fever Mosquito (YFM) larvae, 96-well plate; conditions: about 1 day-old larvae, room temperature, 3 days, scored on mortality
Experimental: Certain molecules disclosed in this document were tested against YFM using procedures described in the following paragraph. In the reporting of the results, the “GPA & YFM Rating Table” was used (See Table Section).
Master plates containing 400 μg of a molecule dissolved in 100 μL of dimethyl sulfoxide (DMSO) (equivalent to a 4000 ppm solution) are used. A master plate of assembled molecules contains 15 μL per well. To this plate, 135 μL of a 90:10 water/acetone mixture is added to each well. A robot is programmed to dispense 15 μL aspirations from the master plate into an empty 96-well shallow plate (“daughter” plate). There are 6 reps (“daughter” plates) created per master. The created “daughter” plates are then immediately infested with YFM larvae.
The day before plates are to be treated, mosquito eggs are placed in Millipore water containing liver powder to begin hatching (4 g. into 400 mL). After the “daughter” plates are created using the robot, they are infested with 220 μL of the liver powder/larval mosquito mixture (about 1 day-old larvae). After plates are infested with mosquito larvae, a non-evaporative lid is used to cover the plate to reduce drying. Plates are held at room temperature for 3 days prior to grading. After 3 days, each well is observed and scored based on mortality. The results are indicated in the table entitled “Table ABC: Biological Results” (See Table Section).

[2] = tested on: Cabbage Looper (Trichoplusia ni, TRIPNI); assay: Bioassay on Cabbage Looper (CL), 128-well diet tray assay; conditions: 168 h, 50 μg/cm^2 on artificial diet, second instar larvae, 25° C., five to seven days, average of eight wells, read-out: CL % Control (or Mortality) rating
Experimental: (§1) Certain molecules disclosed in this document were tested against BAW and CL using procedures described in the following examples. In the reporting of the results, the “BAW & CL Rating Table” was used (See Table Section).
Bioassays on CL were conducted using a 128-well diet tray assay, one to five second instar CL larvae were placed in each well (3 mL) of the diet tray that had been previously filled with 1 mL of artificial diet to which 50 μg/cm^2 of the test molecule (dissolved in 50 μL of 90:10 acetone-water mixture) had been applied (to each of eight wells) and then allowed to dry. Trays were covered with a clear self-adhesive cover, vented to allow gas exchange, and held at 25° C., 14:10 light-dark for five to seven days. Percent mortality was recorded for the larvae in each well; activity in the eight wells was then averaged. The results are indicated in the table entitled “Table ABC: Biological Results” (See Table Section).

[3] = tested on: Beet Armyworm (Spodoptera exigua, LAPHEG); assay: Bioassay on Beet Armyworm (BAW), 128-well diet tray assay; conditions: 168 h, 50 μg/cm^2 on artificial diet, second instar larvae, 25° C., five to seven days, average of eight wells, read-out: BAW % Control (or Mortality) rating
Experimental: as §1
Bioassays on BAW were conducted using a 128-well diet tray assay. One to five second instar BAW larvae were placed in each well (3 mL) of the diet tray that had been previously filled with approximately 1.5 mL of artificial diet to which 50 μg/cm^2 of the test molecule (dissolved in 50 μL of 90:10 acetone-water mixture) had been applied (to each of eight wells) and then allowed to dry. Trays were covered with a clear self-adhesive cover, vented to allow gas exchange, and held at 25° C., 14:10 light-dark for five to seven days. Percent mortality was recorded for the larvae in each well; activity in the eight wells was then averaged. The results are indicated in the table entitled “Table ABC: Biological Results” (See Table Section).

Row | SMILES | YFM % Control (or Mortality) rating [1] | mortality at 50 µg/cm2 [2] [%] | mortality at 50 µg/cm2 [3] [%]
1 | O=C(NCCF)c1cc(NC(=O)[C@H]2[C@H](c3cc(Cl)cc(Cl)c3)C2(Cl)Cl)c(Cl)cc1Cl (relative stereo) [F99, trans-2,4-Dichloro-5-(2,2-dichloro-3-(3,5-dichlorophenyl)cyclopropane-1-carboxamido)-N-(2-fluoroethyl)benzamide] | A (80-100) | 50 to 100 | 50 to 100
2 | O=C(NCC(F)(F)F)c1cc(NC(=O)[C@H]2[C@H](c3ccc(Cl)c(C(F)(F)F)c3)C2(Cl)Cl)ccc1Cl (relative stereo) [F117, 2-Chloro-5-(trans-2,2-dichloro-3-(4-chloro-3-(trifluoromethyl)phenyl)cyclopropane-1-carboxamido)-N-(2,2,2-trifluoroethyl)benzamide] | A (80-100) | 50 to 100 | 50 to 100
3 | O=C(NCC(F)(F)F)c1cccc(NC(=O)[C@H]2[C@H](c3cc(Cl)cc(Cl)c3)C2(Cl)Cl)c1 (relative stereo) [F3, trans-3-(2,2-Dichloro-3-(3,5-dichlorophenyl)cyclopropane-1-carboxamido)-N-(2,2,2-trifluoroethyl)benzamide] | A (80-100) | 50 to 100 | 50 to 100
4 | CCN(C)C(=O)c1cc(NC(=O)[C@H]2[C@H](c3cc(Cl)cc(Cl)c3)C2(Cl)Cl)ccc1Cl (relative stereo) [F63, trans-2-Chloro-5-(2,2-dichloro-3-(3,5-dichlorophenyl)cyclopropane-1-carboxamido)-N-ethyl-N-methylbenzamide] | D (No activity noticed in this bioassay) | 50 to 100 | 50 to 100
5 | C[C@H](C[S+]([O-])CC(F)(F)F)NC(=O)c1cc(NC(=O)C2C(c3cc(Cl)cc(Cl)c3)C2(Cl)Cl)ccc1Cl (stereo in doubt) [PF7, trans-2-Chloro-5-(2,2-dichloro-3-(3,5-dichlorophenyl)cyclopropane-1-carboxamido)-N-((2R)-1-((2,2,2-trifluoroethyl)sulfinyl)propan-2-yl)benzamide] | A (80-100) | 50 to 100 | 50 to 100
6 | CC(O)CNC(=O)c1cc(NC(=O)[C@H]2[C@H](c3cc(Cl)cc(Cl)c3)C2(Cl)Cl)ccc1Cl (relative stereo) [F78, trans-2-Chloro-5-(2,2-dichloro-3-(3,5-dichlorophenyl)cyclopropane-1-carboxamido)-N-(2-hydroxypropyl)benzamide] | A (80-100) | 50 to 100 | 50 to 100
7 | COC(=O)C(CCSC)NC(=O)c1cc(NC(=O)[C@H]2[C@H](c3cc(Cl)cc(Cl)c3)C2(Cl)Cl)ccc1Cl (relative stereo) [PF10, trans-Methyl-2-(2-chloro-5-(2,2-dichloro-3-(3,5-dichlorophenyl)cyclopropane-1-carboxamido)benzamido)-4-(methylthio)butanoate] | B (More than 0-Less than 80) | 50 to 100 | 50 to 100
8 | O=C(NCC(F)(F)F)c1cc(NC(=O)[C@H]2[C@H](c3cc(Cl)cc(Cl)c3)C2(Cl)Cl)c(Cl)cc1Cl (relative stereo) [F100, trans-2,4-Dichloro-5-(2,2-dichloro-3-(3,5-dichlorophenyl)cyclopropane-1-carboxamido)-N-(2,2,2-trifluoroethyl)benzamide] | A (80-100) | 0 | 50 to 100
9 | O=C(NCC(F)(F)F)c1cc(NC(=O)[C@H]2[C@H](c3ccc(F)c(Br)c3)C2(Cl)Cl)ccc1Cl (relative stereo) [F118, 5-(trans-3-(3-Bromo-4-fluorophenyl)-2,2-dichlorocyclopropane-1-carboxamido)-2-chloro-N-(2,2,2-trifluoroethyl)benzamide] | A (80-100) | 50 to 100 | 50 to 100
10 | CN(CCC(F)(F)F)C(=O)c1cc(NC(=O)[C@H]2[C@H](c3cc(Cl)cc(Cl)c3)C2(Cl)Cl)ccc1Cl (relative stereo) [F64, trans-2-Chloro-5-(2,2-dichloro-3-(3,5-dichlorophenyl)cyclopropane-1-carboxamido)-N-methyl-N-(3,3,3-trifluoropropyl)benzamide] | D (No activity noticed in this bioassay) | 50 to 100 | 50 to 100
11 | O=C(NCCCC(F)(F)F)c1cc(NC(=O)[C@H]2[C@H](c3cc(Cl)cc(Cl)c3)C2(Cl)Cl)ccc1Cl (relative stereo) [F72, trans-2-Chloro-5-(2,2-dichloro-3-(3,5-dichlorophenyl)cyclopropane-1-carboxamido)-N-(4,4,4-trifluorobutyl)benzamide] | A (80-100) | 50 to 100 | 50 to 100
12 | C[C@H](CS(=O)(=O)CCC(F)(F)F)NC(=O)c1cc(NC(=O)C2C(c3cc(Cl)cc(Cl)c3)C2(Cl)Cl)ccc1Cl (stereo in doubt) [PF4, trans-2-Chloro-5-(2,2-dichloro-3-(3,5-dichlorophenyl)cyclopropane-1-carboxamido)-N—((R)-1-((3,3,3-trifluoropropyl)sulfonyl)propan-2-yl)benzamide] | A (80-100) | 50 to 100 | 50 to 100
13 | COc1c(Cl)cc([C@H]2[C@H](C(=O)Nc3ccc(Cl)c(C(=O)NCC(F)(F)F)c3)C2(Cl)Cl)cc1Cl (relative stereo) [F87, trans-2-Chloro-5-(2,2-dichloro-3-(3,5-dichloro-4-methoxyphenyl)cyclopropane-1-carboxamido)-N-(2,2,2-trifluoroethyl)benzamide] | B (More than 0-Less than 80) | 50 to 100 | 50 to 100
14 | O=C(NCCSCc1ccco1)c1cc(NC(=O)[C@H]2[C@H](c3cc(Cl)cc(Cl)c3)C2(Cl)Cl)ccc1Cl (relative stereo) [PF9, trans-2-Chloro-5-(2,2-dichloro-3-(3,5-dichlorophenyl)cyclopropane-1-carboxamido)-N-(2-((furan-2-ylmethyl)thio)ethyl)benzamide] | A (80-100) | 50 to 100 | 50 to 100
15 | CCCNC(=O)c1cc(NC(=O)[C@H]2[C@H](c3cc(Cl)cc(Cl)c3)C2(Cl)Cl)cc(Cl)c1Cl (relative stereo) [F95, trans-2,3-Dichloro-5-(2,2-dichloro-3-(3,5-dichlorophenyl)cyclopropane-1-carboxamido)-N-propylbenzamide] | A (80-100) | 50 to 100 | 50 to 100
16 | O=C(NCC(F)(F)F)c1cc(NC(=O)[C@H]2[C@H](c3cc(F)cc(F)c3)C2(Cl)Cl)ccc1Cl (relative stereo) [F121, 2-Chloro-5-(trans-2,2-dichloro-3-(3,5-difluorophenyl)cyclopropane-1-carboxamido)-N-(2,2,2-trifluoroethyl)benzamide] | A (80-100) | 50 to 100 | 50 to 100
17 | O=C(NCCC(F)(F)F)c1cc(NC(=O)[C@H]2[C@H](c3ccc(F)c(Cl)c3)C2(Cl)Cl)ccc1Cl (relative stereo) [F107, trans-2-Chloro-5-(2,2-dichloro-3-(3-chloro-4-fluorophenyl)cyclopropane-1-carboxamido)-N-(3,3,3-trifluoropropyl)benzamide] | B (More than 0-Less than 80) | 50 to 100 | 50 to 100
